Results published in patent publication EP4789666A1, “RNA M6A REGULATOR COMPOSITION, PREPARATION METHOD THEREFOR, AND USE THEREOF” (SHANGHAI MERNA THERAPEUTICS CO. LTD, priority 2023, dated 2025).

What was measured:
[1] = Pharmacokinetic study after single topical administration of ointment to the skin of SD rats (LC-MS/MS); type: in vivo; conditions: rat, 20 mg/cm^2, SD rats, 20 mg/cm^2, 20 cm^2, mean
Protocol: 6 SD rats were divided into two groups, with 3 rats per group, where one group received an ointment containing the compound of formula (I) by single topical application to the dorsal skin at 20 mg/cm^2 (3% suspension ointment), with an application area of 20 cm^2, and the other group received an ointment containing the compound of formula (I) by single topical application to the dorsal skin at 20 mg/cm^2 (10% suspension ointment), with an application area of 20 cm^2. The plasma concentration and dorsal skin tissue homogenate concentration of the compound of formula (I) were determined by an LC-MS/MS method.

[2] = Stability test of binary mixtures of the compound of formula (I) and penetration enhancers; type: physicochemical; conditions: binary mixture 10:1, 40°C/75%RH
Protocol: Different types of penetration enhancers and the compound of formula (I) were mixed at a weight ratio of 10:1 to carry out a stability test under accelerated conditions of 40°C/75%RH. Table 15: Stability test of binary mixtures of the compound of formula (I) and penetration enhancers

[3] = Pharmacokinetic study after single topical administration of ointment to the skin of Bama miniature pigs (LC-MS/MS); type: in vivo; conditions: pig, 3% suspension ointment, 20 mg/cm^2, mean
Protocol: 2 Bama miniature pigs respectively received an ointment containing the compound of formula (I) by single topical application to the dorsal and abdominal skin at 20 mg/cm^2 (3% suspension ointment), with a total application area of 6.8% of a body surface area, and a ratio of application areas between the dorsal and abdominal skin being approximately 1:1. The plasma concentration and skin tissue homogenate concentration of the compound of formula (I) were determined by an LC-MS/MS method.

- concentration at 24 h ([1]; dorsal skin tissue homogenate, dorsal skin homogenate, 3% suspension ointment, read-out: Drug concentration in skin tissues at 24 h): 161000 ng/g
- concentration at 24 h ([1]; dorsal skin tissue homogenate, dorsal skin homogenate, 10% suspension ointment, read-out: Drug concentration in skin tissues at 24 h): 800000 ng/g
- concentration at 24 h ([1]; plasma, 3% suspension ointment, read-out: Plasma drug concentration at 24 h): 3.21 ng/mL
- concentration at 24 h ([1]; plasma, 10% suspension ointment, read-out: Plasma drug concentration at 24 h): 17.3 ng/mL
- stability in diisopropyl oxalate [2]: unstable
- stability in propylene carbonate [2]: unstable
- concentration at 24 h ([3]; read-out: Drug concentration in dorsal dermis skin tissues at 24 h): 88300 ng/g
- concentration at 24 h ([3]; abdominal skin tissue, read-out: Drug concentration in abdominal skin tissues at 24 h): 111000 ng/g
- concentration at 24 h ([3]; plasma, read-out: Plasma drug concentration at 24 h): 17.7 ng/mL
- AUC(0-t) ([3]; topical or ocular, plasma): 304 ng·h/mL
- Cmax ([3]; topical or ocular, plasma): 21.6 ng/mL
- MRT inf ([3]; topical or ocular, plasma): 15.2 h
- Tmax ([3]; topical or ocular, plasma): 16 h
SMILES: NC(=O)[C@H]1CCCc2c1[nH]c1ccc(Cl)cc21 [Compound of formula (I), (S)-6-chloro-2,3,4,9-tetrahydro-1H-carbazole-carboxamide]
